Measured values from patent publication US20170233414A1, “DERIVATIVES OF BODIPY” (OREGON HEALTH & SCIENCE UNIVERSITY, priority 2016, published 2017).
Like-named read-outs stand apart in the source and are kept apart here.

Test: Fluorescence properties and quantum yield measurements of the BAA library
Type: physicochemical
Parameters: FWHM (full-width-at half max): unit not given here
Protocol: General Instruments. Synthesized sample purification was performed with an Agilent 1260 Infinity HPLC utilizing a C18 column (150mm×21.2 mm). MS (HRMS, ESI) spectra data was collected with an Agilent 6244 TOF LC/MS with diode array detector VL+ and C18 column (4.6 mm×50 mm). Absorbance and fluorescence data were measured on a SpectraMax M5 Microplate reader. NMR spectra, ^1H and ^13C, were recorded on a Bruker ARK400 spectrometer. BAA microscopy screening in cells for organelle specificity and signal-to-background ratio was completed with an Axio Zeiss Light Microscope and 63× oil immersion objective.
Fluorescence Properties and Quantum Yield Measurements. Spectroscopic characterizations were performed in anhydrous DMSO in polystyrene 96 well plate. Analysis included the maximum absorbance wavelength, maximum fluorescence emission wavelength, full-width-at half max, and quantum yield. Quantum yields (φfl) were determined by comparing the area under the emission spectrum of the BAA compound to a reference fluorophore solution at three concentrations using equation 1, where Grad represents the gradient from the plots of integrated fluorescence intensity vs absorbance at three concentrations and q is the refractive index of the solvent. Fluorescein in 0.1 M NaOH (φfl=0.91)^3 was the reference for samples with a max absorbance up to 510 nm, where an excitation of 470 nm was used with the emission integrated between 490 to 800 nm. Rhodamine B in ethanol (φfl=0.70) was the reference for samples with a max absorbance between 511-595 nm, where an excitation of 525 nm was used with the emission integrated between 545 to 800 nm. Cresyl violet in methanol (φfl=0.54)^4 was the reference for samples with a max absorbance above 595 nm, where an excitation of 570 nm was used with the emission integrated between 590 to 800 nm.

[1] = anhydrous DMSO, polystyrene 96 well plate
[2] = anhydrous DMSO, relative to reference fluorophore at three concentrations

Compound | Stokes Shift (anhydrous DMSO) | λmax ABS [1] | λmax EM [1] | FWHM (full-width-at half max) (anhydrous DMSO, emission) | φfl (quantum yield) [2] | FWHM (full-width-at half max) | Stokes Shift | λmax ABS | λmax EM | φfl (quantum yield)
COc1ccc2c(/C=C(/CC(=O)O)c3ccc4n3[B-](F)(F)[N+]3=C(/C=C/c5c(Cl)ncc6cc(OC)ccc56)C=C(C)C3=C4)c(Cl)ncc2c1 [BAA-1b] | 17 nm | 580 nm | 597 nm | 40 | 0.62 |  |  |  |  | 
COc1cc(/C=C/C2=[N+]3C(=Cc4ccc(CCC(=O)O)n4[B-]3(F)F)C(C)=C2)cc(I)c1OC [BAA-3a] | 10 nm | 569 nm | 579 nm | 31 | 0.61 |  |  |  |  | 
COc1cc(/C=C(/CC(=O)O)c2ccc3n2[B-](F)(F)[N+]2=C(/C=C/c4cc(I)c(OC)c(OC)c4)C=C(C)C2=C3)cc(I)c1OC [BAA-3b] | 13 nm | 574 nm | 587 nm | 34 | 0.70 |  |  |  |  | 
CC1=CC(/C=C/c2ccccc2N2CCN(C)CC2)=[N+]2C1=Cc1ccc(CCC(=O)O)n1[B-]2(F)F [BAA-4a] | 19 nm | 581 nm | 600 nm | 56 | 0.43 |  |  |  |  | 
COc1cc(OC)c(/C=C/C2=[N+]3C(=Cc4ccc(CCC(=O)O)n4[B-]3(F)F)C(C)=C2)c(OC)c1 [BAA-5a] | 23 nm | 592 nm | 615 nm | 47 | 0.83 |  |  |  |  | 
COc1ccc2c(c1)C(/C=C/C1=[N+]3C(=Cc4ccc(CCC(=O)O)n4[B-]3(F)F)C(C)=C1)C=N2 (stereo not drawn) [BAA-6a] | 34 nm | 609 nm | 643 nm | 64 | 0.18 |  |  |  |  | 
COc1ccc(/C=C/C2=[N+]3C(=Cc4ccc(CCC(=O)O)n4[B-]3(F)F)C(C)=C2)c(OC)c1C [BAA-7a] | 18 nm | 582 nm | 600 nm | 63 | 0.29 |  |  |  |  | 
COc1ccc(/C=C(/CC(=O)O)c2ccc3n2[B-](F)(F)[N+]2=C(/C=C/c4ccc(OC)c(C)c4OC)C=C(C)C2=C3)c(OC)c1C [BAA-7b] | 19 nm | 581 nm | 600 nm | 56 | 0.43 |  |  |  |  | 
COc1ccc(/C=C/C2=[N+]3C(=Cc4ccc(CCC(=O)O)n4[B-]3(F)F)C(C)=C2)c2ccccc12 [BAA-8a] | 29 nm | 594 nm | 623 nm | 61 | 0.50 |  |  |  |  | 
COc1ccc(B(O)O)c(/C=C/C2=[N+]3C(=Cc4ccc(CCC(=O)O)n4[B-]3(F)F)C(C)=C2)c1 [BAA-9a] | 10 nm | 569 nm | 579 nm | 32 | 0.35 |  |  |  |  | 
CCN(CC)c1ccc(/C=C(/CC(=O)O)c2ccc3n2[B-](F)(F)[N+]2=C(/C=C/c4ccc(N(CC)CC)cc4)C=C(C)C2=C3)cc1 [BAA-10b] | 82 nm | 632 nm | 714 nm | 102 | 0.01 |  |  |  |  | 
CCCSc1ncc(/C=C/C2=[N+]3C(=Cc4ccc(CCC(=O)O)n4[B-]3(F)F)C(C)=C2)cn1 [BAA-12a] | 27 nm | 589 nm | 616 nm | 88 | 0.10 |  |  |  |  | 
COc1ccc(/C=C/C2=[N+]3C(=Cc4ccc(CCC(=O)O)n4[B-]3(F)F)C(C)=C2)cc1F [BAA-13a] | 10 nm | 576 nm | 586 nm | 44 | 0.19 |  |  |  |  | 
CC1=CC(/C=C/c2ccc(CC(C)C)s2)=[N+]2C1=Cc1ccc(CCC(=O)O)n1[B-]2(F)F [BAA-14a] | 13 nm | 594 nm | 607 nm | 70 | 0.44 |  |  |  |  | 
C=CCc1cc(/C=C/C2=[N+]3C(=Cc4ccc(CCC(=O)O)n4[B-]3(F)F)C(C)=C2)ccc1OC [BAA-15a] | 16 nm | 581 nm | 597 nm | 39 | 0.42 |  |  |  |  | 
CC1=CC(/C=C/c2cc(C)c(C)cc2C)=[N+]2C1=Cc1ccc(CCC(=O)O)n1[B-]2(F)F [BAA-16a] | 58 nm | 552 nm | 610 nm | 78 | 0.22 |  |  |  |  | 
CC1=CC(/C=C/c2ccc(-c3ccccc3)cc2)=[N+]2C1=Cc1ccc(CCC(=O)O)n1[B-]2(F)F [BAA-17a] |  |  |  |  |  | 42 | 12 nm | 579 nm | 591 nm | 0.59
CC1=CC(/C=C/c2ccc(OCc3ccccc3)cc2)=[N+]2C1=Cc1ccc(CCC(=O)O)n1[B-]2(F)F [BAA-18a] | 16 nm | 577 nm | 593 nm | 37 | 0.65 |  |  |  |  | 
CC1=CC(/C=C/c2ccc(-c3cccs3)cc2)=[N+]2C1=Cc1ccc(CCC(=O)O)n1[B-]2(F)F [BAA-19a] | 13 nm | 582 nm | 595 nm | 35 | 0.64 |  |  |  |  | 
CCSc1ncc(/C=C/C2=[N+]3C(=Cc4ccc(CCC(=O)O)n4[B-]3(F)F)C(C)=C2)cn1 [BAA-20a] | 8 nm | 577 nm | 585 nm | 31 | 0.15 |  |  |  |  | 
COc1cc(OCc2ccccc2)ccc1/C=C/C1=[N+]2C(=Cc3ccc(CCC(=O)O)n3[B-]2(F)F)C(C)=C1 [BAA-21a] | 26 nm | 585 nm | 611 nm | 46 | 0.51 |  |  |  |  | 
COc1cc(OCc2ccccc2)ccc1/C=C(/CC(=O)O)c1ccc2n1[B-](F)(F)[N+]1=C(/C=C/c3ccc(OCc4ccccc4)cc3OC)C=C(C)C1=C2 [BAA-21b] | 20 nm | 588 nm | 608 nm | 50 | 0.54 |  |  |  |  | 
COc1cc(/C=C/C2=[N+]3C(=Cc4ccc(CCC(=O)O)n4[B-]3(F)F)C(C)=C2)ccc1OCc1ccc(F)cc1 [BAA-22a] | 17 nm | 585 nm | 602 nm | 49 | 0.39 |  |  |  |  | 
COc1cc(/C=C(/CC(=O)O)c2ccc3n2[B-](F)(F)[N+]2=C(/C=C/c4ccc(OCc5ccc(F)cc5)c(OC)c4)C=C(C)C2=C3)ccc1OCc1ccc(F)cc1 [BAA-22b] | 19 nm | 582 nm | 601 nm | 46 | 0.27 |  |  |  |  | 
CC1=CC(/C=C/c2ccc(-c3ccc(C(F)(F)F)cn3)cc2)=[N+]2C1=Cc1ccc(CCC(=O)O)n1[B-]2(F)F [BAA-23a] | 11 nm | 592 nm | 603 nm | 30 | 0.23 |  |  |  |  | 
CC1=CC(/C=C/c2ccc(-c3ccc(C(F)(F)F)cn3)cc2)=[N+]2C1=Cc1ccc(/C(=C\c3ccc(-c4ccc(C(F)(F)F)cn4)cc3)CC(=O)O)n1[B-]2(F)F [BAA-23b] | 8 nm | 580 nm | 588 nm | 32 | 0.19 |  |  |  |  | 
CC1=CC(/C=C/c2cccc(I)c2)=[N+]2C1=Cc1ccc(/C(=C\c3cccc(I)c3)CC(=O)O)n1[B-]2(F)F [BAA-24b] | 9 nm | 570 nm | 579 nm | 32 | 0.29 |  |  |  |  | 
CC1=CC(/C=C/c2ccc(Oc3ccc(Cl)cc3)cc2)=[N+]2C1=Cc1ccc(/C(=C\c3ccc(Oc4ccc(Cl)cc4)cc3)CC(=O)O)n1[B-]2(F)F [BAA-27b] | 13 nm | 575 nm | 588 nm | 35 | 0.33 |  |  |  |  | 
CC1=CC(/C=C/c2cc(Cl)ccc2Cl)=[N+]2C1=Cc1ccc(/C(=C\c3cc(Cl)ccc3Cl)CC(=O)O)n1[B-]2(F)F [BAA-29b] | 11 nm | 569 nm | 580 nm | 37 | 0.13 |  |  |  |  | 
CC1=CC(C=Cc2cn(CCC(=O)O)c3ccccc23)=[N+]2C1=Cc1ccc(CCC(=O)O)n1[B-]2(F)F [BAA-30a] | 36 nm | 607 nm | 643 nm | 58 | 0.43 |  |  |  |  | 
